Legend:
[1] = tested on: non-small cell lung cancer NCI-H358 model; experiment: In vivo pharmacodynamic study (2), NCI-H358 model, tumor volume; design: species or system BALB/c nude mice; settings: for Gross tumor volume (Day 1): Day 1, Table 6-2; for Gross tumor volume (Day 28): Day 28, Table 6-2
Protocol: The in vivo pharmacodynamic experiments were performed on the BALB/c nude mice implanted subcutaneously with the non-small cell lung cancer NCI-H358 model.
All of the cages, beddings and water were disinfected before use. All of the animals were permitted free access to a standard certified commercial laboratory diet. A total of 86 mice purchased from Vital River Laboratory Animal Co., LTD, Beijing were used for the study. The animal information of the experiments in Example 34 was as follows: BALB/c nude mice, female, 6-8 weeks, weighing approximately 16-18 g, were placed in a single ventilated cage (4 mice per cage) under a special pathogen free environment. All of the cages, beddings and water were disinfected before use. All of the animals were permitted free access to a standard certified commercial laboratory diet. A total of 56 mice purchased from Shanghai Lingchang Biotechnology Co., Ltd. were used for the study.
Each mouse was implanted subcutaneously with NCI-H358 tumor cells in the right back for tumor growth. The dosing initiated when the average tumor volume reached about 100-200 mm^3. […] The tumor volume was measured twice a week using a two-dimensional caliper, and the volume was measured in mm^3, calculated by the following the formula: V=0.5 a×b^2, wherein, a and b were the long and short diameters of the tumor, respectively. The antitumor efficacy was determined by dividing the average increase in the tumor volume of the animals treated with the compound by the average increase in the tumor volume of the untreated animals, and the safety of the compound was determined by the change in the body weight of the animal treated with the compound.
TGI: Tumor Growth Inhibition.

[2] = Metabolic stability in human liver microsomes; type: in vitro ADME; settings: 0.5 mg/mL protein, read-out: Human T1/2
Protocol: (§1) This assay is used to test the metabolic stability of tested substances in rats, mice and human liver microsomes.
(§2) 1) The tested compound with concentration of 1 μM was co-incubated with liver microsomes with a protein concentration of 0.5 mg/mL under a reducing coenzyme II regeneration system in a 37° C. water bath.
(§3) 2) The positive controls include: testosterone (3A4 substrate), propafenene (2D6 substrate) and diclofenac (2C9 substrate). The incubation condition of the positive controls was consistent with that of the compound.
(§4) 3) The reaction time points were: 0, 5, 10, 20, 30 and 60 minutes, and the reaction is terminated at the corresponding time point using a termination solution containing an internal standard. The compounds were also incubated with microsomes for 60 minutes without a reducing coenzyme II regeneration system and served as a negative control.
(§5) 4) Each time point was a single point (n=1).
(§6) 5) The sample was determined by LC/MS/MS, and the compound concentration was shown as the ratio of the peak area of the compound to the peak area of the internal standard (non-standard).
(§7) 6) In the project report summary, the half-life and the clearance rate would be calculated.

[3] = tested on: colorectal cancer HCT-116 model; experiment: In vivo pharmacodynamic study (3), HCT-116 model, tumor volume; design: species or system BALB/c nude mice; settings: 60 mg/kg(D0-D11), 120 mg/kg (D12-D20), PO, QD × 21
Protocol: (§8) The in vivo pharmacodynamic experiments were performed on the BALB/c nude mice implanted subcutaneously with the colorectal cancer HCT-116 model.
(§9) BALB/c nude mice, female, 6-8 weeks, weighing approximately 18-22 g, were placed in a single ventilated cage (3-5 mice per cage) under a special pathogen free environment. All of the cages, beddings and water were disinfected before use. All of the animals were permitted free access to a standard certified commercial laboratory diet. A total of 48 mice purchased from Shanghai Lingchang Biotechnology Co., Ltd. were used for the study. Each mouse was implanted subcutaneously with 0.2 mL of 5×10^6 HCT-116 cells in the right back for tumor growth. The dosing in groups initiated when the average tumor volume reached about 132 mm^3. The tumor volume was measured twice a week using a two-dimensional caliper, and the volume was measured in mm^3, calculated by the following the formula: V=0.5 a×b^2, wherein, a and b were the long and short diameters of the tumor, respectively. The antitumor efficacy was determined by dividing the average increase in the tumor volume of the animals treated with the compound by the average increase in the tumor volume of the untreated animals.

[4] = Metabolic stability in mouse liver microsomes; type: in vitro ADME; settings: 0.5 mg/mL protein, read-out: Mice T1/2
Protocol: as §1, §2, §3, §4, §5, §6, §7

[5] = Metabolic stability in rat liver microsomes; type: in vitro ADME; settings: 0.5 mg/mL protein, read-out: Rats T1/2
Protocol: as §1, §2, §3, §4, §5, §6, §7

[6] = In vivo pharmacodynamic study (3), HCT-116 model, animal weight; design: species or system BALB/c nude mice; settings: 60 mg/kg(D0-D11), 120 mg/kg (D12-D20), PO
Protocol: as §8, §9

CDK4/cyclin D1 = target: T1, CDK4/cyclin D1 (Homo sapiens, UniProt P11802); experiment: Enzyme activity assay CDK4/cyclin D1 (Lance Ultra); type: biochemical; settings: 0.3 nM CDK4/cyclin D1, 350 μM ATP, 180 minutes
T1 construct: purchased Life technology
Protocol: CDK4/cyclin D1, CDK6/cyclin D1 (Life technology). ULight labeled polypeptide substrates ULight-4E-BP1 and ULight-MBP (PerkinElmer). Europium labeled anti-myelin basic protein antibody and europium labeled rabbit-derived antibody (PerkinElmer). Envision Multi-label Analyzer (PerkinElmer) for signal detection.
They were respectively dissolved in an enzyme buffer solution comprising: 50 mM hydroxyethylpiperazine ethanesulfuric acid solution at pH 7.5, 1 mM ethylenediaminetetraacetic acid, 10 mM magnesium chloride, 0.01% Brij-35, 2 mM dithiothreitol. After the reaction was begun, the OptiPlate 384-well plate was sealed with a top heat seal film TopSeal-A, and incubated at room temperature for 180 minutes.
The termination buffer solution of the enzymatic reaction was prepared, and EDTA was dissolved in a 1-fold diluted assay buffer solution. The reaction was terminated and incubated at room temperature for 5 minutes. 5 μL of the assay mixed solution (prepared with europium labeled anti-myelin basic protein antibody and europium labeled rabbit-derived antibody, respectively) was added to the reactions of CDK4/cyclin D1 and CDK6/cyclin D1, respectively, and incubated at room temperature for 60 minutes. The reaction signal was detected by Envision according to the time-resolved fluorescence resonance energy transfer theory.

T1 sequence (P11802 whole entry): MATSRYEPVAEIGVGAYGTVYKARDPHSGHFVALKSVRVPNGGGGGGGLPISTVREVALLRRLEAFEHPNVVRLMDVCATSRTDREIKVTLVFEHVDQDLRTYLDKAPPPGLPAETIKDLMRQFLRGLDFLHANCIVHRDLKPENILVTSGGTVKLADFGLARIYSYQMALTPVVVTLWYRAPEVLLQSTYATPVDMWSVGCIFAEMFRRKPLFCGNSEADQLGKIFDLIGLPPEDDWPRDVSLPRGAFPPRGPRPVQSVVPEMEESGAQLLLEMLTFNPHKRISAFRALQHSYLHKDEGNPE
T1 sequence (P24385 whole entry partner): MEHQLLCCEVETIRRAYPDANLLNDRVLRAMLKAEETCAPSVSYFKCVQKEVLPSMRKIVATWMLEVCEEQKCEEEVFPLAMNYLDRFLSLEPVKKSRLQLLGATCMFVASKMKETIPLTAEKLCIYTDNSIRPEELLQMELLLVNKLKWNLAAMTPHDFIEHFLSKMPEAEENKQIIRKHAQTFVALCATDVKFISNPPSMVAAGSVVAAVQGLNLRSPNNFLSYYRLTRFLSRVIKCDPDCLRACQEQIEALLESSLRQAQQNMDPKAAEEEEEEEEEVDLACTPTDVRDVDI

half-life at 1 μM [2]: 43.1 min
half-life at 1 μM [4]: 40.2 min
half-life at 1 μM [5]: > 145 min
Changes in animal weight, 0 day ([6]; QD × 21, 0 day): 0%
Changes in animal weight, 7 days ([6]; QD × 21, 7 days): 2.5%
Changes in animal weight, 14 days ([6]; QD × 21, 14 days): −2.3%
Changes in animal weight, 21 days ([6]; QD × 21, 21 days): −5.9%
IC50 (CDK4/cyclin D1): 7.45 nM
Compound: CC(=O)c1c(C)c2cnc(Nc3cnc(N4CCN(CCN(C)C)CC4)cn3)cc2n(C2CCCC2)c1=O [Example 34]
Gross tumor volume (Day 1) ([1]; 20 mg/kg orally daily): 149 ± 18 mm^3
TGI (Day 28) ([1]; 20 mg/kg orally daily): 15.3%
Gross tumor volume (Day 28) ([1]; 20 mg/kg orally daily): 940 ± 70 mm^3
Gross tumor volume (Day 1) ([1]; 60 mg/kg orally daily): 169 ± 27 mm^3
TGI (Day 28) ([1]; 60 mg/kg orally daily): 32.1%
Gross tumor volume (Day 28) ([1]; 60 mg/kg orally daily): 804 ± 103 mm^3
Gross tumor volume (Day 1) ([1]; 150 mg/kg orally daily): 149 ± 18 mm^3
TGI (Day 28) ([1]; 150 mg/kg orally daily): 92.9%
Gross tumor volume (Day 28) ([1]; 150 mg/kg orally daily): 215 ± 34 mm^3
Gross tumor volume, 0 day ([3]; 0 day): 132 mm^3
Gross tumor volume, 7 days ([3]; 7 days): 416 mm^3
Gross tumor volume, 14 days ([3]; 14 days): 695 mm^3
Gross tumor volume, 21 days ([3]; 21 days): 963 mm^3

Source: patent publication US10676474B2, “1,6-naphthyridine derivatives as CDK4/6 inhibitor” (CSTONE PHARMACEUTICALS, priority 2016, dated 2020)
